Counter-ions that a name gives are not always drawn.

For the first experiment, the target named is T1, HCV NS3/4A protease complex, BMS strain (genotype 1a) (UniProt P27958, C1454S/C1711G, species not given/STRAIN_BMS).
T1 construct: b1001: DNA encoding the recombinant HCV NS3/4A protease complex (amino acids 1027 to 1711) ... a three-lysine solubilizing tail was added at the 3′-end of the NS4A coding region; fused on or other part: Three-lysine solubilising tail at the C-terminus of NS4A; A His tag is implied by the pET21b vector and Ni-NTA purification
As to the kind of experiment: Recombinant HCV NS3/4A protease complex FRET peptide assay, BMS strain. The settings on record: NS3/4A BMS Strain; activity range classes. It is filed as biochemical. The source says:
Recombinant HCV NS3/4A Protease Complex FRET Peptide Assay
The purpose of this in vitro assay was to measure the inhibition of HCV NS3 protease complexes, derived from the BMS strain, H77C strain or J416S strain, as described below, by compounds of the present invention. This assay provides an indication of how effective compounds of the present invention would be in inhibiting HCV proteolytic activity.
Serum from an HCV-infected patient was obtained from Dr. T. Wright, San Francisco Hospital. An engineered full-length cDNA (compliment deoxyribonucleic acid) template of the HCV genome (BMS strain) was constructed from DNA fragments obtained by reverse transcription-PCR (RT-PCR) of serum RNA (ribonucleic acid) and using primers selected on the basis of homology between other genotype 1a strains. From the determination of the entire genome sequence, a genotype 1a was assigned to the HCV isolate according to the classification of Simmonds et al. (See P Simmonds, K A Rose, S Graham, S W Chan, F McOmish, B C Dow, E A Follett, P L Yap and H Marsden, J. Clin. Microbiol., 31(6), 1493–1503 (1993)). […] The infectious clones, H77C (1a genotype) and J4L6S (1b genotype) were obtained from R. Purcell (NIH) and the sequences are published in Genbank (AAB67036, see Yanagi, M., Purcell, R. H., Emerson, S. U. and Bukh, J. Proc. Natl. Acad. Sci. U.S.A. 94(16), 8738–8743 (1997); AF054247, see Yanagi, M., St Claire, M., Shapiro, M., Emerson, S. U., Purcell, R. H. and Bukh, J, Virology 244 (1), 161–172. (1998)).
The H77C and J4L6S strains were used for production of recombinant NS3/4A protease complexes. DNA encoding the recombinant HCV NS3/4A protease complex (amino acids 1027 to 1711) for these strains were manipulated as described by P. Gallinari et al. (see Gallinari P, Paolini C, Brennan D, Nardi C, Steinkuhler C, De Francesco R. Biochemistry. 38(17):5620–32, (1999)). Briefly, a three-lysine solubilizing tail was added at the 3′-end of the NS4A coding region. The cysteine in the P1 position of the NS4A-NS4B cleavage site (amino acid 1711) was changed to a glycine to avoid the proteolytic cleavage of the lysine tag. Furthermore, a cysteine to serine mutation was introduced by PCR at amino acid position 1454 to prevent the autolytic cleavage in the NS3 helicase domain. The variant DNA fragment was cloned in the pET21b bacterial expression vector (Novagen) and the NS3/4A complex was expressed in Escherichia coli strain BL21 (DE3) (Invitrogen) following the protocol described by P. Gallinari et al. (see Gallinari P, Brennan D, Nardi C, Brunetti M, Tomei L, Steinkuhler C, De Francesco R., J. Virol. 72(8):6758–69 (1998)) with modifications. Briefly, NS3/4A expression was induced with 0.5 mM Isopropyl β-D-1-thiogalactopyranoside (IPTG) for 22 hr at 20° C. A typical fermentation (10 L) yielded approximately 80 g of wet cell paste. The cells were resuspended in lysis buffer (10 mL/g) consisting of 25 mM N-(2-Hydroxyethyl)piperazine-N′-(2-Ethane Sulfonic acid) (HEPES), pH7.5, 20% glycerol, 500 mM Sodium Chloride (NaCl), 0.5% Triton-X100, 1 microgram/milliliter (“μg/mL”) lysozyme, 5 mM Magnesium Chloride (MgCl2), 1 ug/ml DnaseI, 5 mM β-Mercaptoethanol (βME), Protease inhibitor—Ethylenediamine Tetraacetic acid (EDTA) free (Roche), homogenized and incubated for 20 mins at 4° C. The homogenate was sonicated and clarified by ultra-centrifugation at 235000 g for 1 hr at 4° C. Imidazole was added to the supernatant to a final concentration of 15 mM and the pH adjusted to 8.0. The crude protein extract was loaded on a Nickel-Nitrilotriacetic acid (Ni-NTA) column pre-equilibrated with buffer B (25 mM HEPES, pH8.0, 20% glycerol, 500 mM NaCl, 0.5% Triton-X100, 15 mM imidazole, 5 mM βME). The sample was loaded at a flow rate of 1 mL/min. The column was washed with 15 column volumes of buffer C (same as buffer B except with 0.2% Triton-X100). The protein was eluted with 5 column volumes of buffer D (same as buffer C except with 200 mM Imidazole). […]
Turning to `CC(C)(C)OC(=O)N[C@H]1CCCCC/C=C\[C@@H]2C[C@@]2(C(=O)O)NC(=O)[C@@H]2C[C@@H](Oc3nccc4ccccc34)CN2C1=O` [Compound 1, 14-tert-Butoxycarbonylamino-18-(isoquinolin-1-yloxy)-2,15-dioxo-3,16-diaza-tricyclo[14.3.0.0^4,6]nonadec-7-ene-4-carboxylic acid], the IC50 was in the range of 50 to 500 nM.

Still in this experiment, the particulars now being: NS3/4A BMS strain; activity range symbols.
Take `CC(C)(C)OC(=O)N[C@H]1CCCCC/C=C\[C@@H]2C[C@@]2(C(=O)NS(C)(=O)=O)NC(=O)[C@@H]2C[C@@H](Oc3nccc4ccccc34)CN2C1=O` [Compound 2, [18-(Isoquinolin-1-yloxy)-4-methanesulfonylaminocarbonyl-2,15-dioxo-3,16-diaza-tricyclo[14.3.0.0^4,6]nonadec-7-en-14-yl]-carbamic acid tert-butyl ester]: the IC50 is below 50 nM. In the case of `CC(C)S(=O)(=O)NC(=O)[C@@]12C[C@H]1/C=C\CCCCC[C@H](NC(=O)OC(C)(C)C)C(=O)N1C[C@H](Oc3nccc4ccccc34)C[C@H]1C(=O)N2` [Compound 3, [18-(Isoquinolin-1-yloxy)-2,15-dioxo-4-(propane-2-sulfonylaminocarbonyl)-3,16-diaza-tricyclo-[14.3.0.0^4,6]nonadec-7-en-14-yl]-carbamic acid tert-butyl ester], the IC50 was below 50 nM.

As to `CC(C)(C)OC(=O)N[C@H]1CCCCC/C=C\[C@@H]2C[C@@]2(C(=O)NS(=O)(=O)C2CC2)NC(=O)[C@@H]2C[C@@H](Oc3nccc4ccccc34)CN2C1=O` [Compound 4, [4-Cyclopropanesulfonylaminocarbonyl-18-(isoquinolin-1-yloxy)-2,15-dioxo-3,16-diaza-tricyclo[14.3.0.0^4,6]nonadec-7-en-14-yl]-carbamic acid tert-butyl ester], the IC50 is below 50 nM. Regarding `CC(C)(C)OC(=O)N[C@H]1CCCCC/C=C\[C@@H]2C[C@@]2(C(=O)NS(=O)(=O)C2(Cc3ccccc3)CC2)NC(=O)[C@@H]2C[C@@H](Oc3nccc4ccccc34)CN2C1=O` [Compound 5, [4-(1-Benzyl-cyclopropanesulfonylaminocarbonyl)-18-(isoquinolin-1-yloxy)-2,15-dioxo-3,16-diaza-tricyclo[14.3.0.0^4,6]nonadec-7-en-14-yl]-carbamic acid tert-butyl ester], the IC50 is below 50 nM.

As for `CCCC1(S(=O)(=O)NC(=O)[C@@]23C[C@H]2/C=C\CCCCC[C@H](NC(=O)OC(C)(C)C)C(=O)N2C[C@H](Oc4nccc5ccccc45)C[C@H]2C(=O)N3)CC1` [Compound 6, [18-(Isoquinolin-1-yloxy)-2,15-dioxo-4-(1-propyl-cyclopropanesulfonylaminocarbonyl)-3,16-diaza-tricyclo[14.3.0.0^4,6]nonadec-7-en-14-yl]-carbamic acid tert-butyl ester], the IC50 is below 50 nM. Turning to `CCCC1(S(=O)(=O)NC(=O)[C@@]23C[C@H]2CCCCCCC[C@H](NC(=O)OC(C)(C)C)C(=O)N2C[C@H](Oc4nccc5ccccc45)C[C@H]2C(=O)N3)CC1` [Compound 7, [18-(Isoquinolin-1-yloxy)-2,15-dioxo-4-(1-propyl-cyclopropanesulfonylaminocarbonyl)-3,16-diaza-tricyclo[14.3.0.0^4,6]nonadec-14-yl]-carbamic acid tert-butyl ester], the IC50 is below 50 nM.

Regarding `CC(C)(C)OC(=O)N[C@H]1CCCCC/C=C\[C@@H]2C[C@@]2(C(=O)NS(=O)(=O)C2(C)CC2)NC(=O)[C@@H]2C[C@@H](Oc3nccc4ccccc34)CN2C1=O` [Compound 8, [18-(Isoquinolin-1-yloxy)-4-(1-methyl-cyclopropanesulfonylaminocarbonyl)-2,15-dioxo-3,16-diaza-tricyclo[14.3.0.0^4,6]nonadec-7-en-14-yl]-carbamic acid tert-butyl ester], the IC50 was below 50 nM. Turning to `CC(C)(C)OC(=O)N[C@H]1CCCCC/C=C\[C@@H]2C[C@@]2(C(=O)NS(=O)(=O)C2CCC2)NC(=O)[C@@H]2C[C@@H](Oc3nccc4ccccc34)CN2C1=O` [Compound 9, [4-Cyclobutanesulfonylaminocarbonyl-18-(isoquinolin-1-yloxy)-2,15-dioxo-3,16-diaza-tricyclo[14.3.0.0^4,6]nonadec-7-en-14-yl]-carbamic acid tert-butyl ester], the IC50 was below 50 nM. As for `CC(C)(C)OC(=O)N[C@H]1CCCCCCC[C@@H]2C[C@@]2(C(=O)NS(=O)(=O)C2CC2)NC(=O)[C@@H]2C[C@@H](Oc3nccc4ccccc34)CN2C1=O` [Compound 10, [4-Cyclopropanesulfonylaminocarbonyl-18-(isoquinolin-1-yloxy)-2,15-dioxo-3,16-diaza-tricyclo[14.3.0.0^4,6]nonadec-14-yl]-carbamic acid tert-butyl ester], the IC50 is below 50 nM. On to `N[C@H]1CCCCC/C=C\[C@@H]2C[C@@]2(C(=O)NS(=O)(=O)C2CC2)NC(=O)[C@@H]2C[C@@H](Oc3nccc4ccccc34)CN2C1=O` [Compound 11, Cyclopropanesulfonic acid [14-amino-18-(isoquinolin-1-yloxy)-2,15-dioxo-3,16-diaza-tricyclo[14.3.0.0^4,6]nonadec-7-ene-4-carbonyl]-amide bis hydrochloride], for which the IC50 is below 50 nM. Consider `COC(=O)N[C@H]1CCCCC/C=C\[C@@H]2C[C@@]2(C(=O)NS(=O)(=O)C2CC2)NC(=O)[C@@H]2C[C@@H](Oc3nccc4ccccc34)CN2C1=O` [Compound 12, [4-Cyclopropanesulfonylaminocarbonyl-18-(isoquinolin-1-yloxy)-2,15-dioxo-3,16-diaza-tricyclo[14.3.0.0^4,6]nonadec-7-en-14-yl]-carbamic acid methyl ester], for which the IC50 was below 50 nM. Turning to `CC(C)(C)COC(=O)N[C@H]1CCCCC/C=C\[C@@H]2C[C@@]2(C(=O)NS(=O)(=O)C2CC2)NC(=O)[C@@H]2C[C@@H](Oc3nccc4ccccc34)CN2C1=O` [Compound 13, [4-Cyclopropanesulfonylaminocarbonyl-18-(isoquinolin-1-yloxy)-2,15-dioxo-3,16-diaza-tricyclo[14.3.0.0^4,6]nonadec-7-en-14-yl]-carbamic acid 2,2-dimethyl-propyl ester], the IC50 was below 50 nM. Take `O=C(N[C@H]1CCCCC/C=C\[C@@H]2C[C@@]2(C(=O)NS(=O)(=O)C2CC2)NC(=O)[C@@H]2C[C@@H](Oc3nccc4ccccc34)CN2C1=O)OC1CCOCC1` [Compound 14, [4-Cyclopropanesulfonylaminocarbonyl-18-(isoquinolin-1-yloxy)-2,15-dioxo-3,16-diaza-tricyclo[14.3.0.0^4,6]nonadec-7-en-14-yl]-carbamic acid tetrahydro-pyran-4-yl ester]: the IC50 is below 50 nM.

The same experiment, now with this note: read-out: IC50 against the BMS strain NS3/4A protease in the enzyme assay; BMS strain.
On to `CC(C)(C)OC(=O)N[C@H]1CCCCC/C=C\[C@@H]2C[C@@]2(C(=O)NS(C)(=O)=O)NC(=O)[C@@H]2C[C@@H](Oc3nccc4ccccc34)CN2C1=O` [Compound 2, [18-(Isoquinolin-1-yloxy)-4-methanesulfonylaminocarbonyl-2,15-dioxo-3,16-diaza-tricyclo[14.3.0.0^4,6]nonadec-7-en-14-yl]-carbamic acid tert-butyl ester], for which the IC50 was determined as 26 nM.

The values above are taken from patent publication US7173004B2, “Macrocyclic isoquinoline peptide inhibitors of hepatitis C virus” (Bristol-Myers Squibb Company, priority 2003, dated 2007).
